Test results published in ChEMBL document CHEMBL1201862, “PubChem BioAssay data set” (2004).
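Interpolation was linear, between the two tested concentrations surrounding the appropriate level; five concentrations were tested over 48 hours in 96-well plates. GI50: concentration for 50% inhibition of growth.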 Activity calls are given as the source filed them. Cut-off read from the data, not from the text of the source: active = GI50 up to about 1.1 µM and inactive = higher.

How the values were obtained:
Assay in all cases: NCI anticancer screen, dose series, 48 h
SK-OV-3 = system: SK-OV-3
TK-10 = system: TK-10
RXF 393 = system: RXF 393
CCRF-CEM = system: CCRF-CEM
NCI-H226 = system: NCI-H226
HL-60 = system: HL-60
UACC-257 = system: UACC-257
HCT-116 = system: HCT-116
NCI-H460 = system: NCI-H460
Malme-3M = system: Malme-3M
T47D = system: T47D
COLO 205 = system: COLO 205
SR = system: SR
SW-620 = system: SW-620
SN12C = system: SN12C
RPMI-8226 = system: RPMI-8226
UACC-62 = system: UACC-62
OVCAR-8 = system: OVCAR-8
IGROV-1 = system: IGROV-1
786-0 = system: 786-0

SMILES | GI50 (SK-OV-3) | GI50 (TK-10) | GI50 (RXF 393) | GI50 (CCRF-CEM) | GI50 (NCI-H226) | GI50 (HL-60) | GI50 (UACC-257) | GI50 (HCT-116) | GI50 (NCI-H460) | GI50 (Malme-3M) | GI50 (T47D) | GI50 (COLO 205) | GI50 (SR) | GI50 (SW-620) | GI50 (SN12C) | GI50 (RPMI-8226) | GI50 (UACC-62) | GI50 (OVCAR-8) | GI50 (IGROV-1) | GI50 (786-0)
Cn1c(=S)c2nc(SCCN3CCCC3)[nH]c2n(C)c1=O | > 100 µM (inactive) | > 100 µM (inactive) | > 100 µM (inactive) | > 100 µM (inactive) | > 100 µM (inactive) | > 100 µM (inactive) | > 100 µM (inactive) | > 100 µM (inactive) | > 100 µM (inactive) | > 100 µM (inactive) | > 100 µM (inactive) | > 100 µM (inactive) | > 100 µM (inactive) | > 100 µM (inactive) | > 100 µM (inactive) | > 100 µM (inactive) | > 100 µM (inactive) | > 100 µM (inactive) | > 100 µM (inactive) | > 100 µM (inactive)
CC(C)(C)NCCC(O)c1cc(C(F)(F)F)nc2c(C(F)(F)F)cccc12 (stereo not given) | 16.2 µM (inactive) | 12.2 µM (inactive) | 6.53 µM (inactive) | 5.57 µM (inactive) | 17.3 µM (inactive) | 6.37 µM (inactive) | 13.5 µM (inactive) | 5.07 µM (inactive) | 4.83 µM (inactive) | 11.6 µM (inactive) | 14.3 µM (inactive) | 10.7 µM (inactive) | 3.62 µM (inactive) | 18 µM (inactive) | 7.71 µM (inactive) | 4.58 µM (inactive) | 12.6 µM (inactive) | 7.53 µM (inactive) | 10.3 µM (inactive) | 6.98 µM (inactive)
CC(=O)NNc1nc(C)c(C(/C=C/c2ccccc2O)=N/N=C(N)N)s1 | > 100 µM (inactive) | > 100 µM (inactive) | > 100 µM (inactive) | > 100 µM (inactive) | > 100 µM (inactive) | > 100 µM (inactive) | > 100 µM (inactive) | > 100 µM (inactive) | > 100 µM (inactive) | > 100 µM (inactive) | > 100 µM (inactive) | > 100 µM (inactive) | > 100 µM (inactive) | > 100 µM (inactive) | > 100 µM (inactive) | > 100 µM (inactive) | > 100 µM (inactive) | > 100 µM (inactive) | > 100 µM (inactive) | > 100 µM (inactive)
CC(C)/C(Cl)=N\OC(=O)Nc1ccc(S(N)(=O)=O)cc1 | 17.7 µM (inactive) | 17.9 µM (inactive) | 12.6 µM (inactive) | 1.75 µM (inactive) | 21 µM (inactive) | 1.89 µM (inactive) | 17.4 µM (inactive) | 13.5 µM (inactive) | 20.5 µM (inactive) | 4.59 µM (inactive) | 22.6 µM (inactive) | 1.98 µM (inactive) | 2.08 µM (inactive) | 1.86 µM (inactive) | 13.9 µM (inactive) | 2.16 µM (inactive) | 17.9 µM (inactive) | 17.9 µM (inactive) | 17.5 µM (inactive) | 17.3 µM (inactive)
COc1cc(C)cc2c1C(=O)C(Br)=CC2=O | 19.6 µM (inactive) | 2.49 µM (inactive) | 3.31 µM (inactive) | 0.867 µM (active) | 17.4 µM (inactive) | 1.53 µM (inactive) | 13.7 µM (inactive) | 6.7 µM (inactive) | 19.4 µM (inactive) | 2.1 µM (inactive) | 2.21 µM (inactive) | 1.72 µM (inactive) | 4.57 µM (inactive) | 1.89 µM (inactive) | 15.7 µM (inactive) | 3.13 µM (inactive) | 9.71 µM (inactive) | 6.34 µM (inactive) | 17.7 µM (inactive) | 3.92 µM (inactive)
Cc1ccc([C@H]2CC(=O)C[C@H](c3ccc(C)cc3)C23C(=O)c2ccccc2C3=O)cc1 | 31.6 µM (inactive) | 22.2 µM (inactive) | 19.1 µM (inactive) | 14 µM (inactive) | 34.5 µM (inactive) | 11 µM (inactive) | 15.4 µM (inactive) | 34.6 µM (inactive) | 47.2 µM (inactive) | 46.7 µM (inactive) | > 100 µM (inactive) | 37.2 µM (inactive) | 13.2 µM (inactive) | 94.6 µM (inactive) | 48.4 µM (inactive) | 43.2 µM (inactive) | 37.7 µM (inactive) | 31 µM (inactive) | 40 µM (inactive) | 17.1 µM (inactive)
c1ccc2c(c1)Nc1c3ccccc3nc3cccc-2c13 | 1.35 µM (inactive) | 1.73 µM (inactive) | 1.51 µM (inactive) | 0.305 µM (active) | 2.01 µM (inactive) | 1.58 µM (inactive) | 1.73 µM (inactive) | 0.499 µM (active) | 0.378 µM (active) | 1.66 µM (inactive) | 2.06 µM (inactive) | 0.857 µM (active) | 0.462 µM (active) | 0.283 µM (active) | 0.979 µM (active) | 0.587 µM (active) | 1.63 µM (inactive) | 0.507 µM (active) | 1.21 µM (inactive) | 0.638 µM (active)
CC[C@@]1(O)C(=O)OCc2c1cc1n(c2=O)Cc2cc3ccccc3nc2-1 [CAMPTOTHECIN] | 0.0202 µM (active) | 1.32 µM (inactive) | 0.0256 µM (active) | < 0.01 µM (active) | 0.0179 µM (active) | 0.015 µM (active) | 0.0543 µM (active) | 0.023 µM (active) | 0.0158 µM (active) | 0.174 µM (active) | 0.0225 µM (active) | 0.286 µM (active) | < 0.01 µM (active) | 0.0366 µM (active) | 0.014 µM (active) | 0.0336 µM (active) | < 0.0106 µM (active) | 0.0388 µM (active) | 0.184 µM (active) | < 0.0214 µM (active)
